Measurements published in PubChem BioAssay AID2060499 (Molecular Pharmacology Branch, DTP, NCI, 2025).

System: 777334-354-R2-J4-PDC tumor spheroids with HUVEC/MSC, viability
Assay: Anticancer human tumor 777334-354-R2-J4-PDC patient-derived pancreatic adenocarcinoma cell line growth inhibition [GQUAD]
Conditions: for IC50: curve of first compound; for viability, T/C: stronger effect = lower value; active = viability on the fitted dose curve at most 10% of control; inactive = the rest
Procedure, shortened: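 Viability of tumor cells grown as complex spheroids with endothelial and stromal cells, exposed to drug combinations. Top concentration at or near clinical Cmax (else 10 microM), diluted in half-log increments.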

[1] = second compound 0.0316 µM, first compound 0.000999 µM
[2] = second compound 0.0316 µM, first compound 0.00316 µM
[3] = second compound 0.0316 µM, first compound 0.00999 µM
[4] = second compound 0.0316 µM, first compound 0.0316 µM
[5] = second compound 0.0316 µM, first compound 0.0999 µM
[6] = second compound 0.0316 µM, first compound 0.316 µM
[7] = second compound 0.1 µM, first compound 0.000999 µM
[8] = second compound 0.1 µM, first compound 0.00316 µM
[9] = second compound 0.1 µM, first compound 0.00999 µM
[10] = second compound 0.1 µM, first compound 0.0316 µM
[11] = second compound 0.1 µM, first compound 0.0999 µM
[12] = second compound 0.1 µM, first compound 0.316 µM
[13] = second compound 0.316 µM, first compound 0.000999 µM
[14] = second compound 0.316 µM, first compound 0.00316 µM
[15] = second compound 0.316 µM, first compound 0.00999 µM
[16] = second compound 0.316 µM, first compound 0.0316 µM
[17] = second compound 0.316 µM, first compound 0.0999 µM
[18] = second compound 0.316 µM, first compound 0.316 µM
[19] = second compound 1 µM, first compound 0.000999 µM
[20] = second compound 1 µM, first compound 0.00316 µM
[21] = second compound 1 µM, first compound 0.00999 µM
[22] = second compound 1 µM, first compound 0.0316 µM
[23] = second compound 1 µM, first compound 0.0999 µM
[24] = second compound 1 µM, first compound 0.316 µM
[25] = second compound 3.16 µM, first compound 0.000999 µM
[26] = second compound 3.16 µM, first compound 0.00316 µM
[27] = second compound 3.16 µM, first compound 0.00999 µM
[28] = second compound 3.16 µM, first compound 0.0316 µM
[29] = second compound 3.16 µM, first compound 0.0999 µM
[30] = second compound 3.16 µM, first compound 0.316 µM
[31] = second compound 10 µM, first compound 0.000999 µM
[32] = second compound 10 µM, first compound 0.00316 µM
[33] = second compound 10 µM, first compound 0.00999 µM
[34] = second compound 10 µM, first compound 0.0316 µM
[35] = second compound 10 µM, first compound 0.0999 µM
[36] = second compound 10 µM, first compound 0.316 µM
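Note: spheroids exposed to compounds for 7 days before readout.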

Cn1ncnc1[C@H]1c2n[nH]c(=O)c3cc(F)cc(c23)N[C@@H]1c1ccc(F)cc1 + CN(C)c1ccc(Nc2c3ccc(NC(=O)CCN4CCCC4)cc3nc3cc(NC(=O)CCN4CCCC4)ccc23)cc1
inactive: viability, T/C [1] 108% | viability, T/C [2] 89.9% | viability, T/C [3] 87.1% | viability, T/C [4] 95.8% | viability, T/C [5] 92.2% | viability, T/C [6] 79.7% | viability, T/C [7] 98.7% | viability, T/C [8] 85.4% | viability, T/C [9] 99% | viability, T/C [10] 88.6% | viability, T/C [11] 79.6% | viability, T/C [12] 81.2% | viability, T/C [13] 94% | viability, T/C [14] 87.4% | viability, T/C [15] 93.1% | viability, T/C [16] 87.9% | viability, T/C [17] 88.5% | viability, T/C [18] 70.5% | viability, T/C [19] 103% | viability, T/C [20] 86.6% | viability, T/C [21] 85.5% | viability, T/C [22] 85.5% | viability, T/C [23] 82.5% | viability, T/C [24] 69.5% | viability, T/C [25] 73.5% | viability, T/C [26] 72.7% | viability, T/C [27] 81.6% | viability, T/C [28] 89.9% | viability, T/C [29] 83.1% | viability, T/C [30] 70.9% | viability, T/C [31] 76.2% | viability, T/C [32] 74.9% | viability, T/C [33] 80.6% | viability, T/C [34] 77.6% | viability, T/C [35] 82.2% | viability, T/C [36] 66.1%
> 316 nM: IC50 (second compound 0.0316 µM) | IC50 (second compound 0.1 µM) | IC50 (second compound 0.316 µM) | IC50 (second compound 1 µM) | IC50 (second compound 3.16 µM) | IC50 (second compound 10 µM)

Cn1ncnc1[C@H]1c2n[nH]c(=O)c3cc(F)cc(c23)N[C@@H]1c1ccc(F)cc1 + Cc1cnc(CNC(=O)c2c(=O)c3ccc(N4CCCN(C)CC4)nc3n3c2sc2ccccc23)cn1
> 316 nM: IC50 (second compound 0.0316 µM) | IC50 (second compound 0.1 µM) | IC50 (second compound 0.316 µM) | IC50 (second compound 1 µM) | IC50 (second compound 3.16 µM) | IC50 (second compound 10 µM)
inactive: viability, T/C [1] 97.7% | viability, T/C [2] 86.3% | viability, T/C [3] 96.8% | viability, T/C [4] 95% | viability, T/C [5] 104% | viability, T/C [6] 88% | viability, T/C [7] 86.4% | viability, T/C [8] 72.6% | viability, T/C [9] 90.8% | viability, T/C [10] 86.2% | viability, T/C [11] 94.5% | viability, T/C [12] 78.2% | viability, T/C [13] 83.7% | viability, T/C [14] 81.1% | viability, T/C [15] 71.9% | viability, T/C [16] 79.6% | viability, T/C [17] 87.5% | viability, T/C [18] 68% | viability, T/C [19] 77.7% | viability, T/C [20] 74.1% | viability, T/C [21] 64.4% | viability, T/C [22] 71.3% | viability, T/C [23] 76.5% | viability, T/C [24] 62.5% | viability, T/C [25] 60.7% | viability, T/C [26] 63.8% | viability, T/C [27] 57.3% | viability, T/C [28] 60.6% | viability, T/C [29] 61% | viability, T/C [30] 54% | viability, T/C [31] 52.1% | viability, T/C [32] 58.4% | viability, T/C [33] 58.2% | viability, T/C [34] 68.7% | viability, T/C [35] 56.1% | viability, T/C [36] 51.8%

O=C(c1cc(Cc2n[nH]c(=O)c3ccccc23)ccc1F)N1CCN(C(=O)C2CC2)CC1 + Cc1cnc(CNC(=O)c2c(=O)c3ccc(N4CCCN(C)CC4)nc3n3c2sc2ccccc23)cn1
inactive: viability, T/C [4] 85.9% | viability, T/C (second compound 0.0316 µM, first compound 0.1 µM) 94.2% | viability, T/C [6] 96.6% | viability, T/C (second compound 0.0316 µM, first compound 1 µM) 92% | viability, T/C (second compound 0.0316 µM, first compound 3.16 µM) 90.6% | viability, T/C (second compound 0.0316 µM, first compound 10 µM) 75.7% | viability, T/C [10] 88.9% | viability, T/C (second compound 0.1 µM, first compound 0.1 µM) 88.2% | viability, T/C [12] 91.8% | viability, T/C (second compound 0.1 µM, first compound 1 µM) 88% | viability, T/C (second compound 0.1 µM, first compound 3.16 µM) 76.7% | viability, T/C (second compound 0.1 µM, first compound 10 µM) 70.3% | viability, T/C [16] 79.9% | viability, T/C (second compound 0.316 µM, first compound 0.1 µM) 76.5% | viability, T/C [18] 69.7% | viability, T/C (second compound 0.316 µM, first compound 1 µM) 75.1% | viability, T/C (second compound 0.316 µM, first compound 3.16 µM) 74.3% | viability, T/C (second compound 0.316 µM, first compound 10 µM) 64.9% | viability, T/C [22] 73.8% | viability, T/C (second compound 1 µM, first compound 0.1 µM) 75.6% | viability, T/C [24] 76.2% | viability, T/C (second compound 1 µM, first compound 1 µM) 68.8% | viability, T/C (second compound 1 µM, first compound 3.16 µM) 69.5% | viability, T/C (second compound 1 µM, first compound 10 µM) 60.4% | viability, T/C [28] 56.5% | viability, T/C (second compound 3.16 µM, first compound 0.1 µM) 55.9% | viability, T/C [30] 63% | viability, T/C (second compound 3.16 µM, first compound 1 µM) 64.2% | viability, T/C (second compound 3.16 µM, first compound 3.16 µM) 64.9% | viability, T/C (second compound 3.16 µM, first compound 10 µM) 56.2% | viability, T/C [34] 61.5% | viability, T/C (second compound 10 µM, first compound 0.1 µM) 54.2% | viability, T/C [36] 51.9% | viability, T/C (second compound 10 µM, first compound 1 µM) 55.8% | viability, T/C (second compound 10 µM, first compound 3.16 µM) 61.9% | viability, T/C (second compound 10 µM, first compound 10 µM) 47.7%
> 10000 nM: IC50 (second compound 0.0316 µM) | IC50 (second compound 0.1 µM) | IC50 (second compound 0.316 µM) | IC50 (second compound 1 µM) | IC50 (second compound 3.16 µM) | IC50 (second compound 10 µM)
